Measurements: the NIST ThermoML archive (doi:10.1021/je049672l)
“And” between values parts separate entries of the source, which are not always exact repeats. Equal entries are not always repeated.

Details: for mass density: Vibrating tube method; for vapor or sublimation pressure: Closed cell (Static) method

CC(C)C [2-methylpropane]
Fluid (supercritical or subcritical phases)
Details | mass density [kg/m3]
240 K, 484.1 kPa | 617.68
240 K, 1027.4 kPa | 618.3
240 K, 1538.4 kPa | 618.86
240 K, 2037.8 kPa | 619.41
240 K, 2522.8 kPa | 619.95
240 K, 3029.3 kPa | 620.49
240 K, 3501.9 kPa | 621
240 K, 4038.4 kPa | 621.58
240 K, 4542.1 kPa | 622.1
240 K, 5022.8 kPa | 622.62
240 K, 5522.1 kPa | 623.14
240 K, 5987.3 kPa | 623.62
240 K, 6540.8 kPa | 624.19
240 K, 7010.9 kPa | 624.66
260 K, 517.1 kPa | 595.93
260 K, 947.4 kPa | 596.52
260 K, 1503.8 kPa | 597.28
260 K, 1984.7 kPa | 597.94
260 K, 2532 kPa | 598.66
260 K, 3005.3 kPa | 599.28
260 K, 3472.2 kPa | 599.9
260 K, 4015.9 kPa | 600.6
260 K, 4464.7 kPa | 601.16
260 K, 4915.7 kPa | 601.73
260 K, 5481.6 kPa | 602.44
260 K, 5953.7 kPa | 603.05
260 K, 6532 kPa | 603.75
260 K, 7031.7 kPa | 604.37
280 K, 512.2 kPa | 573.26
280 K, 996 kPa | 574.1
280 K, 1532.9 kPa | 575.01
280 K, 2000.6 kPa | 575.8
280 K, 2508.1 kPa | 576.64
280 K, 2999.4 kPa | 577.44
280 K, 3506 kPa | 578.27
280 K, 4015.2 kPa | 579.09
280 K, 4460.5 kPa | 579.8
280 K, 4938.8 kPa | 580.54
280 K, 5494.5 kPa | 581.39
280 K, 5986.9 kPa | 582.16
280 K, 6507.2 kPa | 582.93
280 K, 6980.4 kPa | 583.64
300 K, 476.5 kPa | 548.51
300 K, 1017.6 kPa | 549.71
300 K, 1462.4 kPa | 550.7
300 K, 1999.9 kPa | 551.86
300 K, 2533.3 kPa | 552.99
300 K, 3021.3 kPa | 554.01
300 K, 3526.2 kPa | 555.05
300 K, 3965.8 kPa | 555.93
300 K, 4482.8 kPa | 556.96
300 K, 4980.2 kPa | 557.93
300 K, 5467.8 kPa | 558.87
300 K, 5953.2 kPa | 559.79
300 K, 6460.3 kPa | 560.72
300 K, 7025.2 kPa | 561.79
320 K, 1063 kPa | 522.78
320 K, 1503.5 kPa | 524.1
320 K, 2072.9 kPa | 525.74
320 K, 2548.7 kPa | 527.08
320 K, 3037.4 kPa | 528.43
320 K, 3521.6 kPa | 529.72
320 K, 4027.5 kPa | 531.05
320 K, 4496.4 kPa | 532.26
320 K, 4946.7 kPa | 533.39
320 K, 5450.3 kPa | 534.62
320 K, 5960.5 kPa | 535.86
320 K, 6511.5 kPa | 537.15
320 K, 6995.3 kPa | 538.27
340 K, 1494.6 kPa | 493.98
340 K, 2007.1 kPa | 496.16
340 K, 2499.6 kPa | 498.13
340 K, 3002.8 kPa | 500.07
340 K, 3503.8 kPa | 501.94
340 K, 4023.8 kPa | 503.83
340 K, 4507.3 kPa | 505.51
340 K, 5017.1 kPa | 507.23
340 K, 5520.7 kPa | 508.89
340 K, 5998.3 kPa | 510.42
340 K, 6512.9 kPa | 512.03
340 K, 6962.7 kPa | 513.39
360 K, 2008.5 kPa | 460.57
360 K, 2503.6 kPa | 463.81
360 K, 2997.5 kPa | 466.82
360 K, 3502.9 kPa | 469.71
360 K, 4027.6 kPa | 472.55
360 K, 4532.2 kPa | 475.11
360 K, 5024.7 kPa | 477.51
360 K, 5482.2 kPa | 479.63
360 K, 6006.8 kPa | 481.96
360 K, 6485.4 kPa | 484.01
360 K, 6987.7 kPa | 486.08
380 K, 2517.9 kPa | 417.11
380 K, 3027.5 kPa | 423.54
380 K, 3511 kPa | 428.79
380 K, 4014.9 kPa | 433.63
380 K, 4487.2 kPa | 437.71
380 K, 4990.6 kPa | 441.69
380 K, 5519.1 kPa | 445.53
380 K, 6019.7 kPa | 448.91
380 K, 6503.3 kPa | 451.96
380 K, 6952.1 kPa | 454.64

Liquid
Details | mass density [kg/m3] | vapor or sublimation pressure [kPa]
240 K | 617.17 | 40.1
260 K | 595.32 | 94.6
280 K | 572.74 | 197.8
300 K | 548.27 | 368.6
320 K | 521.48 | 632.5
340 K | 491.87 | 1013.7
360 K | 457.33 | 1541.6
380 K | 413.34 | 2250.4

CCCC [butane]
Fluid (supercritical or subcritical phases)
Details | mass density [kg/m3]
240 K, 486 kPa | 635.96
240 K, 1007.3 kPa | 636.47
240 K, 1510.1 kPa | 636.95
240 K, 2000.1 kPa | 637.42
240 K, 2570.2 kPa | 637.97
240 K, 3029.5 kPa | 638.41
240 K, 3512.2 kPa | 638.87
240 K, 4001.2 kPa | 639.35
240 K, 4487.8 kPa | 639.8
240 K, 5029 kPa | 640.31
240 K, 5540.8 kPa | 640.78
240 K, 5990.8 kPa | 641.21
240 K, 6517.3 kPa | 641.67
240 K, 7115.6 kPa | 642.22
260 K, 481 kPa | 615.74
260 K, 998.4 kPa | 616.36
260 K, 1521.8 kPa | 616.98
260 K, 2020.3 kPa | 617.55
260 K, 2488.3 kPa | 618.09
260 K, 3039.4 kPa | 618.72
260 K, 3506.9 kPa | 619.26
260 K, 3997 kPa | 619.8
260 K, 4494.6 kPa | 620.36
260 K, 5004.2 kPa | 620.91
260 K, 5503.1 kPa | 621.46
260 K, 6003.3 kPa | 622.01
260 K, 6478.7 kPa | 622.54
260 K, 6989.2 kPa | 623.08
280 K, 144.7 kPa | 593.92
280 K, 173.2 kPa | 593.97
280 K, 493.9 kPa | 594.44
280 K, 992 kPa | 595.16
280 K, 1472.7 kPa | 595.86
280 K, 1987.6 kPa | 596.59
280 K, 2465.8 kPa | 597.26
280 K, 2985.5 kPa | 597.98
280 K, 3516.7 kPa | 598.71
280 K, 3974.9 kPa | 599.34
280 K, 4513.6 kPa | 600.07
280 K, 4975 kPa | 600.69
280 K, 5428.9 kPa | 601.3
280 K, 5929.2 kPa | 601.98
280 K, 6499.1 kPa | 602.71
280 K, 7020 kPa | 603.37
300 K, 268.9 kPa | 571.14
300 K, 315.1 kPa | 571.23
300 K, 493.4 kPa | 571.55
300 K, 992.8 kPa | 572.45
300 K, 1491.3 kPa | 573.35
300 K, 2013.4 kPa | 574.26
300 K, 2499.1 kPa | 575.12
300 K, 2964 kPa | 575.92
300 K, 3499.9 kPa | 576.83
300 K, 3992.8 kPa | 577.66
300 K, 4525.1 kPa | 578.55
300 K, 4990.4 kPa | 579.31
300 K, 5543.6 kPa | 580.23
300 K, 5951.1 kPa | 580.88
300 K, 6459.3 kPa | 581.65
300 K, 7089.3 kPa | 582.62
320 K, 515.9 kPa | 546.74
320 K, 1002.9 kPa | 547.89
320 K, 1502.7 kPa | 549.06
320 K, 2011.8 kPa | 550.22
320 K, 2517.1 kPa | 551.36
320 K, 3010.6 kPa | 552.45
320 K, 3523.1 kPa | 553.55
320 K, 4015.6 kPa | 554.6
320 K, 4017.2 kPa | 554.6
320 K, 4513.3 kPa | 555.64
320 K, 4992.8 kPa | 556.63
320 K, 5473.8 kPa | 557.6
320 K, 6031 kPa | 558.74
320 K, 6510.5 kPa | 559.67
320 K, 6982.1 kPa | 560.62
340 K, 761.5 kPa | 519.87
340 K, 791.7 kPa | 519.97
340 K, 989.9 kPa | 520.64
340 K, 1519.5 kPa | 522.33
340 K, 1975.7 kPa | 523.74
340 K, 2514.4 kPa | 525.36
340 K, 3012.7 kPa | 526.82
340 K, 3504.4 kPa | 528.23
340 K, 4034.7 kPa | 529.7
340 K, 4437.7 kPa | 530.79
340 K, 4964.4 kPa | 532.19
340 K, 5471 kPa | 533.51
340 K, 5975.4 kPa | 534.78
340 K, 6451.2 kPa | 535.97
340 K, 7014.5 kPa | 537.36
360 K, 1181.7 kPa | 490.31
360 K, 1215.8 kPa | 490.48
360 K, 1507.5 kPa | 491.85
360 K, 2006.4 kPa | 494.12
360 K, 2493.7 kPa | 496.23
360 K, 2995.1 kPa | 498.32
360 K, 3489.7 kPa | 500.29
360 K, 3993.1 kPa | 502.23
360 K, 4488.7 kPa | 504.06
360 K, 4984.1 kPa | 505.83
360 K, 5504.8 kPa | 507.65
360 K, 5979.4 kPa | 509.32
360 K, 6486.7 kPa | 510.96
360 K, 7012.4 kPa | 512.64
380 K, 1845.2 kPa | 455.88
380 K, 1925.7 kPa | 456.51
380 K, 2007.2 kPa | 457.14
380 K, 2503.7 kPa | 460.77
380 K, 3010.6 kPa | 464.17
380 K, 3502 kPa | 467.25
380 K, 3999.9 kPa | 470.18
380 K, 4508.9 kPa | 473
380 K, 5015.7 kPa | 475.66
380 K, 5511.1 kPa | 478.12
380 K, 6013.8 kPa | 480.51
380 K, 6534.9 kPa | 482.88
380 K, 6978 kPa | 484.82

Liquid
Details | mass density | vapor or sublimation pressure
240 K | 634.72 kg/m3 and 634.79 kg/m3 | 26.2 kPa and 23.9 kPa
260 K | 615.48 kg/m3 | 59.9 kPa
280 K | 593.89 kg/m3 | 131.5 kPa
300 K | 571.03 kg/m3 | 256.4 kPa
320 K | 546.56 kg/m3 | 454.8 kPa
340 K | 520.07 kg/m3 and 519.84 kg/m3 | 750.5 kPa and 751 kPa
360 K | 490.27 kg/m3 and 490.24 kg/m3 | 1168.5 kPa and 1168.1 kPa
380 K | 455 kg/m3 | 1737.4 kPa
